Where a name gives a salt, the structure may show the parent alone.
Assay: Fluidity evaluation: angle of repose determination (fixed base cone method)
Assay type: physicochemical
Settings: for fluidity (judgement in words): fixed base cone method
Source text: The term “fluidity” in the present Specification means adhesion and cohesion between particles or adhesion of a particle with a solid wall surface. Said “fluidity” can be put into numerical terms by, for instance, methods of determining the angle of repose of a powder. Methods of determining the angle of repose are known to those in the field, but the fixed base cone method by funnel is an example (for instance, “Yakuzaigaku,” Ryuichi Arita, Hitoshi Sezaki, editors (Kodansha Scientific), p. 182). […] R. L. Jr., Chemical Engineering, Jan. 18, p. 166, Table II, 1965).
[Fluidity evaluation: angle of repose determination] A funnel for pouring powder is placed above a table for determination of the angle of repose. The angle formed by the surface of a layer of accumulated powder and a horizontal plane when the powder is poured so that none remains in the funnel is determined and this angle (°) serves as the angle of repose.

O=C([O-])[O-].[Ca+2] [calcium carbonate undiluted powder, calcium carbonate]
angle of repose (determination performed with a vibrator): 50 ° | fluidity (judgement in words): fluidity was not good

Nc1c(Br)cc(Br)cc1CN[C@H]1CC[C@H](O)CC1 [amboxol hydrochloride, ambroxol hydrochloride]
fluidity (judgement in words): could not be fed by funnel even using the vibrator

NC(N)=Nc1nc(CSCCC(N)=NS(N)(=O)=O)cs1 [famotidine undiluted powder, famotidine]
fluidity (judgement in words): extremely inferior fluidity

— US6656492B2, “Quick disintegrating tablet in buccal cavity and manufacturing method thereof” (Yamanouchi Pharmaceutical Co., Ltd., priority 2000, dated 2003)
